Assay results as given in PubChem BioAssay (NCI).
Values joined by “and” are separate entries in the source; they are usually repeats but may differ in a detail not shown here. Equal values may be shown once.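 Cultured in 96-well plates, cells were exposed to test compound for 48 hours across five concentrations. Here, GI50 denotes the concentration required for 50% inhibition of growth. TGI: total growth inhibition.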

Legend:
Assay in all cases: NCI-60 cell line screen, 48 h
[1] = system: CCRF-CEM leukemia
[2] = system: DMS 273 small cell lung
[3] = system: HL-60(TB) leukemia
[4] = system: HOP-92 NSCLC
[5] = system: OVCAR-3 ovarian
[6] = system: SF-539 CNS
[7] = system: SK-MEL-28 melanoma
[8] = system: SNB-19 CNS
[9] = system: UACC-62 melanoma
[10] = system: KM20L2 colon

| SMILES | TGI [1] | TGI [2] | TGI [3] | TGI [4] | TGI [5] | TGI [6] | TGI [7] | TGI [8] | TGI [9] | TGI [10] | GI50 [1] | GI50 [3] | GI50 [4] | GI50 [5] | GI50 [6] | GI50 [7] | GI50 [8] | GI50 [9] |
| --- | --- | --- | --- | --- | --- | --- | --- | --- | --- | --- | --- | --- | --- | --- | --- | --- | --- | --- |
| [N-]=[N+]=Nc1c(Br)c(=O)[nH]c(=O)n1COCCO | > 100 µM | > 100 µM | > 100 µM | > 100 µM | > 100 µM | > 100 µM | > 100 µM | > 100 µM | > 100 µM |  |  |  |  |  |  |  |  |  |
| Cc1ccc(C)c2c1CCc1cc3ccccc3nc1-2 | > 100 µM |  |  |  | > 100 µM | > 100 µM | > 100 µM | > 100 µM | > 100 µM | > 100 µM |  |  |  |  |  |  |  |  |
| O=S1(=O)CC(Br)C(Br)C1 (stereo not given) | 8.95 µM |  | 8.75 µM | 7.43 µM | 7.82 µM | 54.4 µM | 13.7 µM | > 100 µM | 18.7 µM |  | 1.6 µM | 3.5 µM | 2.35 µM | 2.77 µM | 13.6 µM | 3.64 µM | 29.4 µM | 5.39 µM |
| CC(C)=CCC/C(C)=C/[C@H]1OC(=O)CC12C[C@H](O)C=CC2=O (stereo not given in full) | 0.521 µM |  | 1.11 µM | 3.06 µM | 0.848 µM | 1.26 µM | 5.09 µM | 2.64 µM | 2.68 µM |  | 0.171 µM | 0.323 µM | 1.21 µM | 0.455 µM | 0.421 µM | 2.23 µM | 1.36 µM | 1.34 µM |
| C[C@H]1CCC/C=C/[C@@H]2C[C@H](O)C[C@H]2[C@H](O)[C@@H](SC2OC(CO)C(O)C(O)C2O)CC(=O)O1 (stereo not given in full) | > 100 µM |  | > 100 µM | > 100 µM | > 100 µM | > 100 µM | > 100 µM | > 100 µM | > 100 µM |  | 61.2 µM | > 100 µM | > 100 µM | > 100 µM | 31.9 µM | 74.3 µM | > 100 µM | 33.6 µM |
| O=c1[nH]cnc2nc(-c3ccc(N(CCCl)CCCl)cc3)[nH]c12 | > 100 µM |  | > 100 µM | > 100 µM | 79.6 µM | 63 µM | > 100 µM | > 100 µM | 71.6 µM |  | > 100 µM | > 100 µM | 17.8 µM | 22.8 µM | 15.1 µM | > 100 µM | 19.3 µM | 0.507 µM |
| CC(=O)Nc1cc2cc(NS(=O)(=O)c3cc(C(F)(F)F)cc(C(F)(F)F)c3)ccc2oc1=O | > 100 µM |  | > 100 µM | > 100 µM | > 100 µM | 96.6 µM | > 100 µM | > 100 µM | > 100 µM |  |  |  |  |  |  |  |  |  |
| Cc1ccc(S(=O)(=O)c2ccsc2N)cc1 | > 100 µM |  | > 100 µM | > 100 µM | > 100 µM | > 100 µM | > 100 µM | > 100 µM | > 100 µM |  | > 100 µM | > 100 µM | 73.9 µM | 56.1 µM | > 100 µM | > 100 µM | > 100 µM | > 100 µM |
| Cc1nn2c(/C=C3\C(=O)Nc4ccccc43)c(C)nc2s1 | > 100 µM |  | > 100 µM | > 100 µM | > 100 µM | > 100 µM | > 100 µM | > 100 µM | > 100 µM |  | 30.1 µM | 21 µM | 61 µM | 35.6 µM | 49.8 µM | > 100 µM | 45.7 µM | 35.5 µM |
| CC(C)(O)CCC(O)C(C)(O)C1CCC2(O)C3=CC(=O)C4(O)CC(O)C(O)CC4(C)C3CCC12C (stereo not given) (tested in a mixture with another compound) | > 100 µM |  | > 100 µM | > 100 µM | > 100 µM | > 100 µM | > 100 µM | > 100 µM | > 100 µM |  |  |  |  |  |  |  |  |  |
| C[C@]12CC[C@H]3[C@@H](CCC4=C[C@@H](OC5OCC(OC6OC(CO)C(O)C(O)C6O)C(O)C5O)CC[C@@]43C=O)[C@@]1(O)CCC2C1=CC(=O)OC1 (stereo not given in full) | > 100 µM |  | 0.646 µM | 5.13 µM | 1.43 µM | 1.68 µM | 9.62 µM | 11.9 µM | 4.29 µM |  |  |  |  |  |  |  |  |  |
| CC1=NN(C(=O)c2cc(Cl)cc([N+](=O)[O-])c2)C(=O)C1N=Nc1ccccc1C(=O)O (stereo not given) | > 100 µM | > 100 µM | > 100 µM |  | > 100 µM | > 100 µM | > 100 µM | > 100 µM | > 100 µM |  |  |  |  |  |  |  |  |  |
| O=C(c1ccccc1)c1ccccc1C(=O)c1ccccc1 | > 100 µM |  | > 100 µM | 99.4 µM | > 100 µM | > 100 µM | > 100 µM | > 100 µM | > 100 µM |  | 42.9 µM | 53.7 µM | 16.4 µM | 41 µM | 77.5 µM | 30.9 µM | > 100 µM | 29.7 µM |
| O=C(O)c1ccc2cccnc2c1O | > 60.8 µM |  | 6.43 µM | 2.74 µM | 5.22 µM | 12.8 µM | > 100 µM | > 100 µM | 9.64 µM |  | 0.989 µM | 1.89 µM | 0.832 µM | 1.68 µM | 1.19 µM | 3.69 µM | 1.48 µM | 1.54 µM |
| Cc1nc2sc(C(=O)Nc3cccc(Cl)c3C)c(N)c2cc1C(C)O (stereo not given) | > 54.7 µM |  |  | 53.4 µM | > 33.4 µM | 1.9 µM | > 55.6 µM | > 100 µM | 44.9 µM |  | 0.115 µM | 0.092 µM | 4.36 µM | 0.114 µM | 0.181 µM | 5.8 µM | 0.293 µM | 0.0852 µM |
| Cn1c(O)c(N=NC(N)=S)c2ccccc21 | > 100 µM |  | > 100 µM | > 100 µM | > 100 µM | > 100 µM | > 100 µM | > 100 µM | > 100 µM |  | 62.1 µM | 37.9 µM | 88 µM | 33.4 µM | > 100 µM | > 100 µM | > 100 µM | > 100 µM |
| CC(=O)O[C@H](C[C@H](C(C)C)N(C)C(=O)[C@@H](NC(=O)[C@H]1CCCCN1C)C(C)(C)C)c1nc(C(=O)N[C@@H](Cc2ccccc2)C[C@H](C)C(=O)O)cs1 | > 25 µM |  | < 0.0025 µM | 0.297 µM | 0.00448 µM | 0.0046 µM | > 25 µM | > 25 µM | > 25 µM |  | < 0.0025 µM | < 0.0025 µM | < 0.0025 µM | < 0.0025 µM | < 0.0025 µM | 1.05 µM | < 0.0025 µM | < 0.0025 µM |
| Cc1[nH]n(-c2ccccc2)c(=O)c1C(=O)c1ccccc1 | > 25 µM |  | > 25 µM | > 25 µM | > 25 µM | > 25 µM | > 25 µM | > 25 µM | > 25 µM |  | > 25 µM | > 25 µM | > 10.6 µM | > 25 µM | > 25 µM | > 25 µM | > 15.7 µM | > 25 µM |
| COc1ccc(S(=O)(=O)n2c3ccccc3n3ncc(-c4nnc(C)o4)c23)cc1 | > 100 µM |  | 0.841 µM | 57.3 µM | 2.45 µM | 7.92 µM | 34.8 µM | > 100 µM | 32.5 µM |  | 0.431 µM | 0.273 µM | 0.365 µM | 0.342 µM | 0.361 µM | 11.3 µM | 0.766 µM | 0.609 µM |
| N#CC1CCc2c(c(-c3cn[nH]c3C(F)(F)F)nc3c(F)cc4[nH]ncc4c23)C1 (stereo not given) | > 100 µM |  | 16.9 µM | 26.5 µM | 42.6 µM | 15.4 µM | 30.4 µM | 61.5 µM | 11.5 µM |  | 4.06 µM | 2.56 µM | 4.42 µM | 4.89 µM | 3.43 µM | 4.43 µM | 5.53 µM | 3.43 µM |
| O[C@H](CN1CC1)[C@@H](O)CN1CC1 | > 100 µM |  | > 100 µM | 67.9 µM | 35.2 µM | 15.5 µM | 84.7 µM | > 100 µM | > 100 µM |  | 0.604 µM | 1.22 µM | 7.62 µM | 13.3 µM | 2.58 µM | 19.5 µM | 6.58 µM | 3.96 µM |
| O=C(O)c1cc2c(c3ccsc13)-c1ccccc1CC2 | > 100 µM |  | > 100 µM | > 100 µM | > 100 µM | > 100 µM | > 100 µM | > 100 µM | > 100 µM |  | 37.6 µM | 37.5 µM | 30.3 µM | 28.8 µM | 36.5 µM | 85.5 µM | 47 µM | 33.9 µM |
| CC(C)(F)C[C@H](N[C@@H](c1ccc(-c2ccc(S(C)(=O)=O)cc2)cc1)C(F)(F)F)C(=O)NC1(C#N)CC1 | > 100 µM |  | > 100 µM | 30.3 µM and 28.4 µM | > 55 µM and 47.9 µM | 31.8 µM and 53.2 µM | 55 µM and > 100 µM | 55 µM and 62.2 µM | 55 µM and > 100 µM |  | > 100 µM | > 100 µM | 5.81 µM and 7.42 µM | > 55 µM and 19.9 µM | 11.8 µM and 23.1 µM | 49.1 µM and 36.3 µM | 16.6 µM and 18.3 µM | 27.3 µM and 51.9 µM |
| C=C1C[C@@H]2[C@H](CC[C@]3(C)C(=O)CC[C@@H]23)[C@@]2(C)C=CC(=O)C=C12 | > 74.9 µM |  | > 63.4 µM | > 100 µM | > 66.3 µM | 74.4 µM | > 100 µM | > 100 µM | 30 µM |  | 24.5 µM | 26 µM | > 100 µM | 26.5 µM | 25.2 µM | 42.5 µM | > 58.8 µM | 8.11 µM |
